The source of these data is US7790884B2, “Acylaminopiperidine compound” (Astellas Pharma Inc., priority 2006, dated 2010).

Where a name gives a salt, the structure may show the parent alone.

For one test, the system named is Balb/c mice, oxazolone-induced contact dermatitis. The experiment in a line: Mouse oxazolone-induced contact dermatitis (ear swelling). In kind it is in vivo. The following applies: 30 mg/kg oral administration, swelling 20 hours after oxazolone application. How it is done: 2. Action Upon Mouse Oxazolone-Induced Contact Dermatitis
Balb/c mice (6 to 10 weeks of age, female, Charles River Japan) were sensitized by applying 150 μl of 3% oxazolone/ethanol solution (Sigma Aldrich Japan) to the abdominal part. On the 6th day after the sensitization, 10 μl of 1% oxazolone/ethanol solution was applied to both sides of the right ear. The test drug was administered in 12 hours after the application of the oxazolone solution (test drug administration group), and the solvent alone used in dissolving the test drug was administered to the control group. Thickness of the right auricle was measured before the application and 20 hours thereafter using a […] (Mitsutoyo), and the swelling (thickness increment=measured value after 20 hours−measured value before application) was calculated. The inhibition ratio was calculated by the following formula, by regarding a group to which the oxazolone solution was applied without sensitization as the normal group. In this connection, the above-mentioned test was carried out by 5 animals per group. Inhibition ratio=(swelling of control group−swelling of test drug administration group)×100/(swelling of control group−swelling of normal group)
As to `COc1cc2nc(N3CCC(N(C)C(=O)[C@@H]4CCCN4C)CC3)nc(Nc3ccc(Cl)cc3F)c2cc1OC` [Example 1, N-(1-{4-[(4-chloro-2-fluorophenyl)amino]-6,7-dimethoxyquinazolin-2-yl}piperidin-4-yl)-N,1-dimethyl-L-prolinamide dihydrochloride], the “inhibitory activity (inhibition of right auricle swelling)” value was “good inhibitory activity”.

The next test addresses T1, human CCR4 (Homo sapiens, UniProt P51679).
T1 construct: expressed in transfected cells; membrane fraction used
T1 sequence (P51679 1-360): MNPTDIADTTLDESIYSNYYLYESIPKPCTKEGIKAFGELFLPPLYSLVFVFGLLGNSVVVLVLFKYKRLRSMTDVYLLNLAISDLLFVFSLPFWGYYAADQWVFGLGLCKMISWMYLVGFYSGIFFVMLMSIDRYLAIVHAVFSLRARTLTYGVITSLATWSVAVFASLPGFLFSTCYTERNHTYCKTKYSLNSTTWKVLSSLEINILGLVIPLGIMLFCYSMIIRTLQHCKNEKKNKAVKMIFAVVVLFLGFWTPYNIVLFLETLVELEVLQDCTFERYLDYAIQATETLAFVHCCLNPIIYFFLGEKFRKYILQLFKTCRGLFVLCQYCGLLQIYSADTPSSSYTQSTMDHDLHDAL
The experiment in a line: [35S]GTPγS binding test via CCR4 (human MDC-stimulated, human CCR4 expressing cell line membrane fraction). Particulars: membrane fraction of human CCR4 expressing B300-16 cells, room temperature 1 hour 30 minutes, read-out: inhibitory activity value (IC50). In kind it is biochemical. How it is done:
Action for [^35S]GTPγS Binding Test Via CCR4 (1) Preparation of Human CCR4 Expressing Cell Line A vector (contains a neomycin-resistance gene) in which human CCR4 gene was inserted into downstream of the EF-1α promoter was prepared and transfected into a mouse pre B cell line B300-16 cells by electroporation. These cells were cultured using a G-418-supplemented medium, and a single cell line capable of producing human CCR4 constantly and stably was obtained by the limiting dilution method. (2) Preparation of Human CCR4 Expressing Cell Line Membrane Fraction The human CCR4 expressing cells were recovered, washed with PBS and then suspended in a lysis buffer (10 mM HEPES pH 7.5, 2 mM EDTA, proteinase inhibitor). After allowing the suspension to stand on ice for 15 minutes, the cells were disintegrated using a homogenizer and centrifuged (2000 rpm, 10 min, 4° C.). The supernatant was further subjected to ultracentrifugation (22 K, 30 min, 4° C.), and then the pellet was suspended in PBS and used in the subsequent test. (3) GTPγS Binding Test In a reaction mixture liquid containing 20 mM of HEPES pH 7.05, 100 mM of NaCl, 5 mM of MgCl2, 2 μM of GDP, human MDC, […] of [^35S]GTPγS, 1 mg of wheat germ agglutinin SPA beads and 1 μg of the human CCR4 expressing cell line membrane fraction, respective concentration of the test compound was allowed to undergo the reaction at room temperature for 1 hour and 30 minutes, and the radioactivity was measured.
Background: Binding of GTPγS marks nucleotide exchange on a G protein.
The IC50 is the concentration needed to halve the response being measured. As to `COc1cc2nc(N3CCC(N(C)C(=O)[C@@H]4CCCN4C)CC3)nc(Nc3ccc(Cl)cc3F)c2cc1OC` [Example 1, N-(1-{4-[(4-chloro-2-fluorophenyl)amino]-6,7-dimethoxyquinazolin-2-yl}piperidin-4-yl)-N,1-dimethyl-L-prolinamide dihydrochloride], the IC50 is at most 100 nM.
Take `CCN(C(=O)[C@@H]1CCCN1C)C1CCN(c2nc(Nc3ccc(Cl)cc3F)c3cc(Br)ccc3n2)CC1` [Example 57]: the IC50 is at most 100 nM.
As to `CCN(C(=O)[C@@H]1CCCN1)C1CCN(c2nc(Nc3ccc(Cl)cc3F)c3cc(Br)ccc3n2)CC1` [Example 55], the IC50 is at most 100 nM.
Same read-out and setting: under `COc1cc2c(Nc3ccc(Cl)cc3F)nc(N3CCC(N(C)C(=O)[C@H]4CCCN4)CC3)nc2cc1F` [Example 35] stands at most 100 nM; under `CN(C(=O)[C@@H]1CCCN1)C1CCN(c2nc(Nc3ccc(Cl)cc3)c3cc(Br)ccc3n2)CC1` [Example 43], at most 100 nM.
On to `COc1cc2nc(N3CCC(N(C)C(=O)[C@H]4CCCN4C)CC3)nc(Nc3ccc(Cl)cc3F)c2cc1F` [Example 66], for which the IC50 was at most 100 nM.
Still for that read-out and setting: under `CCN(C(=O)[C@H]1CCCN1)C1CCN(c2nc(Nc3ccc(Cl)cc3F)c3ccc(C#N)cc3n2)CC1` [Example 28] stands at most 100 nM; under `CCn1ncc2c(NCc3ccc(Cl)cc3F)nc(N3CCC(N(C)C(=O)[C@H]4CCCN4)CC3)nc21` [Example 105], at most 100 nM.
`CCN(C(=O)[C@H]1CCCN1C)C1CCN(c2nc(Nc3ccc(Cl)cc3F)c3cc(OC)c(OC)cc3n2)CC1` [Example 26]: the IC50 was at most 100 nM.
For the compound `COc1cc2nc(N3CCC(N(C)C(=O)[C@H]4CCCN4)CC3)nc(Nc3c(F)cc(Cl)cc3F)c2cc1F` [Example 78], the IC50 was at most 100 nM.
For `CN(C(=O)[C@@H]1CCCN1C)C1CCN(c2nc(Nc3ccc(Cl)cc3F)c3cc(F)ccc3n2)CC1` [Example 31], the IC50 was at most 100 nM.
Take `COc1cc2nc(N3CCC(N(C)C(=O)[C@@H]4CCCCN4)CC3)nc(Nc3ccc(Cl)cc3F)c2cc1OC` [Example 86]: the IC50 is at most 100 nM.
As to `CN(C(=O)[C@@H]1CCCN1C)C1CCN(c2nc(Nc3ccc(Cl)cc3F)c3ccc(C#N)cc3n2)CC1` [Example 15], the IC50 is at most 100 nM.
The same measure, in the same setting: for `COc1cc2nc(N3CCC(N(C(=O)[C@H]4CCCCN4)C4CC4)CC3)nc(Nc3ccc(Cl)cc3F)c2cc1OC` [Example 90] the value was at most 100 nM.
Still for that read-out and setting: for `CN(C(=O)[C@H]1CCCN1)C1CCN(c2nc(NCc3ccc(Cl)cc3F)c3cnn(CC(F)(F)F)c3n2)CC1` [Example 106] the value was at most 100 nM.
Regarding `CN(C(=O)[C@@H]1CCCN1C)C1CCN(c2nc(Nc3ccc(Cl)cc3F)c3cnn(CC(F)(F)F)c3n2)CC1` [Example 103], the IC50 is at most 100 nM.
Still for that read-out and setting: under `COc1cc2c(Nc3ccc(Cl)cc3F)nc(N3CCC(N(C)C(=O)[C@@H]4CCCN4C)CC3)nc2cc1F` [Example 36] stands at most 100 nM.
For `CCN(C(=O)[C@@H]1CCCN1)C1CCN(c2nc(Nc3ccc(Cl)cc3F)c3ccc(C#N)cc3n2)CC1` [Example 69], the IC50 was at most 100 nM.
For the compound `CN(C(=O)[C@H]1CCCN1C)C1CCN(c2nc(Nc3ccc(Cl)cc3F)c3ccc(C#N)cc3n2)CC1` [Example 70], the IC50 is at most 100 nM.
With `COc1cc2nc(N3CCC(N(C)C(=O)[C@H]4CCCN4)CC3)nc(Nc3ccc(Cl)cn3)c2cc1F` [Example 74], the IC50 is at most 100 nM.
As to `COc1cc2nc(N3CCC(N(C(=O)[C@@H]4CCCN4)C4CC4)CC3)nc(Nc3ccc(Cl)cc3F)c2cc1OC` [Example 13], the concentration for half-maximal inhibition (IC50) was at most 100 nM.
As for `COc1cc2nc(N3CCC(N(C(=O)[C@H]4CCCN4)C4CCC4)CC3)nc(Nc3ccc(Cl)cc3F)c2cc1OC` [Example 17], the IC50 was at most 100 nM.
For `CN(C(=O)[C@@H]1CCCN1)C1CCN(c2nc(Nc3ccc(Cl)cc3F)c3cnn(CC(F)(F)F)c3n2)CC1` [Example 101], the IC50 is at most 100 nM.
As for `CCN(C(=O)[C@H]1CCCN1)C1CCN(c2nc(Nc3ccc(Cl)cc3)c3cc(F)ccc3n2)CC1` [Example 40], the IC50 was at most 100 nM.
With `CN(C(=O)[C@H]1CCCN1)C1CCN(c2nc(Nc3ccc(Cl)cc3F)c3cc(Br)ccc3n2)CC1` [Example 27], the IC50 is at most 100 nM.
Turning to `CN(C(=O)[C@H]1CCCN1C)C1CCN(c2nc(Nc3ccc(Cl)cc3)c3cc(Br)ccc3n2)CC1` [Example 47], the IC50 is at most 100 nM.
